Literature values in US8378072B2, “Methods for designing and synthesizing directed sequence polymer compositions via the directed expansion of epitope permeability” (Declion Pharmaceuticals, Inc., priority 2006, dated 2013).

How the values were obtained:
[1] = limited human trials; Kim et al. Clinical Immunology 2002
[2] = Raz et al., Lancet 2001
[3] = YFAK input ratio of 1:1:1:1 compared to input ratio of 1:1:10:6; Rasmussen et al.
[4] = compared with COP-1

For “AKPVVHLFANIVTPRTP [altered peptide ligand (APL) made from MBP83-99, placed into limited human trials]”, which “clinical efficacy by evaluation using MRI” value [1] is on record?
Its value is “clinically ineffective”.

For VLGGGVALLRVIPALDSLTPANED [p277], which “activity in the context of Type I diabetes” value [2] is on record?
Its value is “apparent activity”.

What does the source list for “YFAK: random sequence polymer consisting of the amino acids Y, F, A, and K”?
eliciting a recall response [3]: not effective; efficacy in EAE [4]: better efficacy
